We go through 3 compounds from patent US12187758B2 (ROME Therapeutics, Inc., priority 2022, dated 2025).

For test [1], the system named is interferon-stimulated gene (ISG) response. The test can be described thus: B6/JGpt-Trex1em1Cd1194/Gpt mouse model (ISG score). In kind it is in vivo. The conditions noted are these: B6/JGpt-Trex1em1Cd1194/Gpt mice, 100 mg/kg p.o. daily for 5 days. Here is the method: Exemplary compounds were tested for the ability to alter the interferon-stimulated gene (ISG) response in a B6/JGpt-Trex1em1Cd1194/Gpt mouse model. Assay procedures and results are described below.
Nine 8-10 week old B6/JGpt-Trex1em1Cd1194/Gpt mice were acclimated to the lab for at least 5 days. Compound 2 was prepared daily in a 20% PEG400 (pH 3.5) solution for p.o. administration. Compound 2 was administered for 5 days.
Compound 2 was administered daily from Day 1 to Day 5. All mice were euthanized 1 hour after the last dose administration on Day 5. Heart and skin were harvested and snap frozen in liquid nitrogen, and plasma (EDTA) was collected for bioanalysis. Total RNA was isolated and ISG score for each sample was determined as in Part IIIa of Example 108.
Fifteen 6-8 week old B6/JGpt-Trex1em1Cd1194/Gpt mice were acclimated to the lab for at least 5 days. Compound 67 was prepared daily in a 20% PEG400 (pH 3.5) solution for p.o. administration. […] was administered for 5 days.
Compound 67 was administered daily from Day 1 to Day 5. All mice were euthanized 1 hour after the last dose administration on Day 5. Heart and skin were harvested and snap frozen in liquid nitrogen, and plasma (EDTA) was collected for bioanalysis. Total RNA was isolated and ISG score for each sample was determined as in Part IIIa of Example 108.

Test [2] relates to THP1-Dual KO-TREX1 xenograft tumors. The test can be described thus: Altering IFN production in THP1-Dual KO-TREX1 mouse xenografts (Compound 67). In kind it is in vivo, CB-17 SCID female mice. The conditions noted are these: decitabine 5 mg/kg SC, compound 0.3-100 mg/kg PO once daily for 5 days; tumors 4 h post-last dose; FIG. 9. Here is the method:
Exemplary Compound 67 was tested for its ability to alter IFN levels in THP1-Dual™ KO-TREX1 xenografts in mice. Assay procedures are described below.
CB-17 SCID female mice were inoculated subcutaneously with 10 million THP1-Dual™ KO-TREX1 cells in 200 μl PBS with Matrigel (1:1) and grouped at N=5 per treatment per sampling timepoint when tumor volume reached an average of 340 mm^3. Six groups were co-administered: (1) decitabine (DAC) at 5 mg/kg SC, once daily, for 5 days, and (2) test compound 67 at one of six doses (0.3 mg/kg PO, 1 mg/kg PO, 3 mg/kg PO, 10 mg/kg PO, 30 mg/kg PO, 100 mg/kg PO) once daily, for 5 days. Two additional groups were administered (1) decitabine and test compound vehicle control SC+PO, once daily, for 5 days, and (2) decitabine at 5 mg/kg SC, once daily, for 5 days. […]
Tumors were harvested 4 h post-last dose administered on day 5, grinded in PBS at 50 Hz for 5 min, kept on ice for 30 min while being vortexed every 5 min. […] Equal amounts of proteins were added to 96-well black plates, and luciferase signal was measured using the QUANTI-Luc™ detection medium according to manufacturer's instructions. Luminescence was measured using the EnVision® 2105 Multimode Plate Reader.
Experimental results are depicted in FIG. 9. […] In FIG. 9, IFN signal was measured in tumors harvested from mice 4 hours after the final decitabine and test compound dosing on day 5.

The test system is the same in test [3]. Kind of test: Altering IFN production in THP1 TREX1 KO xenografts. The test is classed as in vivo, CB-17 SCID female mice. The conditions noted are these: decitabine 5 mg/kg IP, test compound 10, 30, or 100 mg/kg PO once daily for 4 days; tumors 24 h post-last dose; FIG. 6. As to the method: Exemplary compounds 2, 25 and 40 were tested for their ability to alter IFN levels in THP1-Dual™ KO-TREX1 xenografts in mice. Assay procedures are described below.
CB-17 SCID female mice were inoculated subcutaneously with 10 million THP1-Dual™ KO-TREX1 cells in 200 μl PBS with Matrigel (1:1) and grouped when tumor volume reached 350-400 mm^3. Mice bearing THP1-Dual™ KO-TREX1 xenograft tumors were then separated into 5 groups. Three groups were administered: (1) decitabine (DAC) at 5 mg/kg IP, once daily, for 4 days, and (2) test compound at 10, 30, or 100 mg/kg, PO, once daily, for 4 days. One group was administered decitabine (DAC) at 5 mg/kg IP, once daily, for 4 days, and the test compound vehicle control. The final group was administered the vehicle control from both the test compound and the vehicle control from decitabine. Decitabine is formulated in sterile PBS, pH 7.4, and Compound 2, 25, and 40 were formulated in 20% PEG400 in PBS.
Tumors were harvested 24 h post-last dose administered on day 4, ground in PBS at 50 Hz for 5 min, and kept on ice for 30 min while being vortexed every 5 min. […] Equal amounts of proteins were added to 96-well black plates, and luciferase signal was measured using the QUANTI-Luc™ detection medium according to manufacturer's instructions. Luminescence was measured using the EnVision® 2105 Multimode Plate Reader. […]

Consider `Nc1nc(=O)n([C@@H]2O[C@@](CO)(CCl)[C@@H](O)[C@@H]2F)cc1F` [Compound 67, 4-amino-1-[(2R,3S,4R,5R)-5-(chloromethyl)-3-fluoro-4-hydroxy-5-(hydroxymethyl)oxolan-2-yl]-5-fluoropyrimidin-2-one], for which the “ISG score in the heart and skin” value in test [1] is “lowers the ISG score”. The “inhibition of DAC-induced IFN signal in THP1 tumors” value (shortened to “inhibition”) in test [2] is reported as “dose-response inhibition of DAC-induced IFN signal”.
Regarding `Nc1ccn([C@@H]2O[C@@](CO)(CCl)[C@@H](O)[C@@H]2F)c(=O)n1` [Compound 40, 4-amino-1-((2R,3S,4R,5R)-5-(chloromethyl)-3-fluoro-4-hydroxy-5-(hydroxymethyl)tetrahydrofuran-2-yl)pyrimidin-2(1H)-one], the “inhibition” value in test [3] is reported as “potent inhibition of DAC-induced IFN signal”.
Consider `Nc1ccn([C@H]2C[C@H](O)[C@](CO)(CCl)O2)c(=O)n1` [Compound 2, 4-amino-1-((2R,4S,5R)-5-(chloromethyl)-4-hydroxy-5-(hydroxymethyl)tetrahydrofuran-2-yl)pyrimidin-2(1H)-one], for which, in test [1], the “ISG score in the heart and skin” value is on record as “lowers the ISG score”. Further, in test [3], the “inhibition” value is “potent inhibition of DAC-induced IFN signal”.
